The values below come from patent US20230150953A1, “SUBSTITUTED ISOPHTHALIC ACID DIAMIDES” (Bayer Aktiengesellschaft, priority 2020, published 2023).

Common to all, as to type: in vivo
Test [1] concerns POLCO Polygonum convolvulus. The test is described as follows: Post-emergence herbicidal action against harmful plants. Particulars: one-leaf stage, assessed visually after about 3 weeks vs untreated controls. The text has this: (§1) The abbreviations used for the harmful plants mean: • ABUTH Abutilon theophrasti ALOMY Alopecurus myosuroides • AVEFA Avena fatua AMARE Amaranthus retroflexus • CYPES Cyperus esculentus DIGSA Digitaria sanguinalis • ECHCG Echinochloa crus-galli HORMU Hordeum murinum • LOLMU Lolium multiflorum LOLRI Lolium rigidum • MATIN Matricaria inodora PHBPU Pharbitis purpurea • POLCO Polygonum convolvulus SETVI Setaria viridis • STEME Stellaria media VERPE Veronica persica • VIOTR Viola tricolor 2. Post-Emergence Herbicidal Action Against Harmful Plants Seeds of monocotyledonous and dicotyledonous weed and crop plants are laid out in sandy loam soil in wood-fiber pots, covered with soil and cultivated in a greenhouse under good growth conditions. 2 to 3 weeks after sowing, the test plants are treated at the one-leaf stage. The compounds of the invention, formulated in the form of wettable powders (WP) or as emulsion concentrates (EC), are then sprayed onto the green parts of the plants in the form of an aqueous suspension or emulsion at a water application rate equivalent to 600 to 800 l/ha, with addition of 0.2% wetting agent. After the test plants have been left to stand in the greenhouse under optimal growth conditions for about 3 weeks, the action of the preparations is assessed visually in comparison to untreated controls (herbicidal action in percent (%): 100% activity=the plants have died, 0% activity=like control plants). […] The tables below illustrate, in an illustrative manner, the post-emergence herbicidal action of the compounds of the invention, the herbicidal activity being stated in percent.

The subject of test [2] is MATIN Matricaria inodora. The description is as above. The note with it: one-leaf stage, assessed visually after about 3 weeks vs untreated controls.
Excerpt: as §1

For test [3], the system named is ALOMY Alopecurus myosuroides. The test is described as follows: Pre-emergence herbicidal action against harmful plants. Particulars: 80 g/ha, scored visually after 3 weeks vs untreated controls. The text has this:
(§2) The abbreviations used for the harmful plants mean: • ABUTH Abutilon theophrasti ALOMY Alopecurus myosuroides • AVEFA Avena fatua AMARE Amaranthus retroflexus • CYPES Cyperus esculentus DIGSA Digitaria sanguinalis • ECHCG Echinochloa crus-galli HORMU Hordeum murinum • LOLMU Lolium multiflorum LOLRI Lolium rigidum • MATIN Matricaria inodora PHBPU Pharbitis purpurea • POLCO Polygonum convolvulus SETVI Setaria viridis • STEME Stellaria media VERPE Veronica persica • VIOTR Viola tricolor 1. Pre-Emergence Herbicidal Action Against Harmful Plants Seeds of monocotyledonous and dicotyledonous weed plants and crop plants are laid out in sandy loam soil in wood-fiber pots and covered with soil. The compounds of the invention, formulated in the form of wettable powders (WP) or as emulsion concentrates (EC), are then applied to the surface of the covering soil in the form of an aqueous suspension or emulsion at a water application rate equivalent to 600 to 800 l/ha, with addition of 0.2% wetting agent. After the treatment, the pots are placed in a greenhouse and kept under good growth conditions for the trial plants. The damage to the test plants is scored visually after a test period of 3 weeks by comparison with untreated controls (herbicidal activity in percent (%): 100% activity=the plants have died, 0% activity=like control plants). […] The tables below illustrate, in an illustrative manner, the post-emergence herbicidal action of the compounds of the invention, the herbicidal activity being stated in percent.

Test [4] deals with ECHCG Echinochloa crus-galli. The description is as above. The note with it: scored visually after 3 weeks vs untreated controls.
Excerpt: as §2

Test [5] concerns AMARE Amaranthus retroflexus. The description is as above. Particulars: scored visually after 3 weeks vs untreated controls.
Excerpt: as §2

The test system of test [6] is MATIN Matricaria inodora. The test is described as above. Particulars: scored visually after 3 weeks vs untreated controls.
Excerpt: as §2

Test [7] relates to ABUTH Abutilon theophrasti. The description is as above. Particulars: scored visually after 3 weeks vs untreated controls.
Excerpt: as §2

Test [8] relates to DIGSA Digitaria sanguinalis. Described as above. Particulars: scored visually after 3 weeks vs untreated controls.
Excerpt: as §2

Test [9] relates to SETVI Setaria viridis. The description is as above. The note with it: scored visually after 3 weeks vs untreated controls.
Excerpt: as §2

The test system of another test is PHBPU Pharbitis purpurea. The test is described as follows: Post-emergence herbicidal action against harmful plants. The note with it: 20 g/ha, one-leaf stage, assessed visually after about 3 weeks vs untreated controls.
Excerpt: as §1

For test [10], the system named is ECHCG Echinochloa crus-galli. The description is as above. The note with it: 20 g/ha, one-leaf stage, assessed visually after about 3 weeks vs untreated controls.
Excerpt: as §1

For test [11], the system named is AMARE Amaranthus retroflexus. The test is described as above. Particulars: one-leaf stage, assessed visually after about 3 weeks vs untreated controls.
Excerpt: as §1

Test [12] has as its system SETVI Setaria viridis. The test is described as above. The note with it: one-leaf stage, assessed visually after about 3 weeks vs untreated controls.
Excerpt: as §1

Test [13] has as its system DIGSA Digitaria sanguinalis. The description is as above. Particulars: one-leaf stage, assessed visually after about 3 weeks vs untreated controls.
Excerpt: as §1

Test [14] concerns ALOMY Alopecurus myosuroides. The test is described as above. Particulars: one-leaf stage, assessed visually after about 3 weeks vs untreated controls.
Excerpt: as §1

The test system of another test is VERPE Veronica persica. The test is described as follows: Pre-emergence herbicidal action against harmful plants. Particulars: 80 g/ha, scored visually after 3 weeks vs untreated controls.
Excerpt: as §2

The subject of test [15] is POLCO Polygonum convolvulus. The test is described as above. Particulars: 80 g/ha, scored visually after 3 weeks vs untreated controls.
Excerpt: as §2

Regarding `Cc1c(C(=O)Nc2nnnn2C)c(F)cc(C(F)(F)F)c1C(=O)N(C)C1CC1` [Example 1-97], the “Post-emergence action at 20 g/ha against POLCO in %” value in test [1] came out at 100%. Moreover, the “Post-emergence action at 20 g/ha against MATIN in %” value with MATIN Matricaria inodora [2] is on record as 80%. For the same molecule, the “Pre-emergence action at 80 g/ha against ALOMY in %” value in test [3] was 80%. The “Pre-emergence action at 80 g/ha against ECHCG in %” value in [4] is on record as 90%. For the same molecule, in test [5], the “Pre-emergence action at 20 g/ha against AMARE in %” value was found to be 100% and the “Pre-emergence action at 80 g/ha against AMARE in %” value is 100%. For the same molecule, in the test on MATIN Matricaria inodora [6], the “Pre-emergence action at 20 g/ha against MATIN in %” value stood at 90% and the “Pre-emergence action at 80 g/ha against MATIN in %” value is 100%. Moreover, the “Pre-emergence action at 20 g/ha against ABUTH in %” value in test [7] (20 g/ha) worked out at 100%. In addition, in [7], the “Pre-emergence action at 80 g/ha against ABUTH in %” value was determined as 100%. Moreover, in [8], the “Pre-emergence action at 20 g/ha against DIGSA in %” value was found to be 80% and the “Pre-emergence action at 80 g/ha against DIGSA in %” value amounted to 100%. Further, the “Pre-emergence action at 80 g/ha against SETVI in %” value in the test on SETVI Setaria viridis [9] came to 80%.

Consider `CNC(=O)c1c(C(F)(F)F)cc(F)c(C(=O)Nc2nnnn2C)c1C` [Example 1-92], for which the “Post-emergence action at 20 g/ha against PHBPU in %” value in the test on PHBPU Pharbitis purpurea is 80%. For the same molecule, the “Post-emergence action at 20 g/ha against ECHCG in %” value in test [10] worked out at 80%. Moreover, in [11], the “Post-emergence action at 5 g/ha against AMARE in %” value amounted to 80% and the “Post-emergence action at 20 g/ha against AMARE in %” value was determined as 90%. Moreover, the “Post-emergence action at 20 g/ha against SETVI in %” value in the test on SETVI Setaria viridis [12] is reported as 80%. Moreover, the “Pre-emergence action at 80 g/ha against ALOMY in %” value in test [3] was 80%. In [5], the “Pre-emergence action at 20 g/ha against AMARE in %” value worked out at 90% and the “Pre-emergence action at 80 g/ha against AMARE in %” value is 100%. For the same molecule, in the test with MATIN Matricaria inodora [6], the “Pre-emergence action at 20 g/ha against MATIN in %” value stood at 90% and the “Pre-emergence action at 80 g/ha against MATIN in %” value is 90%. For the same molecule, in [7], the “Pre-emergence action at 80 g/ha against ABUTH in %” value turned out to be 100%. In addition, the “Pre-emergence action at 80 g/ha against DIGSA in %” value in test [8] amounted to 100%. For the same molecule, in the test on SETVI Setaria viridis [9] (20 g/ha), the “Pre-emergence action at 20 g/ha against SETVI in %” value stood at 80%. Also, the “Pre-emergence action at 80 g/ha against SETVI in %” value with SETVI Setaria viridis [9] is 100%.

For `CCN(C)C(=O)c1c(C(F)(F)F)cc(F)c(C(=O)Nc2nnnn2C)c1C` [Example 1-96], the “Post-emergence action at 20 g/ha against ECHCG in %” value in [10] amounted to 80%. In test [11], the “Post-emergence action at 5 g/ha against AMARE in %” value is given as 80% and the “Post-emergence action at 20 g/ha against AMARE in %” value was found to be 90%. Besides, in test [13], the “Post-emergence action at 20 g/ha against DIGSA in %” value was 90%. Further, in test [3], the “Pre-emergence action at 80 g/ha against ALOMY in %” value is 80%. The “Pre-emergence action at 80 g/ha against ECHCG in %” value in [4] is 80%. For the same molecule, in test [5], the “Pre-emergence action at 80 g/ha against AMARE in %” value was determined as 100%. For the same molecule, in the test on MATIN Matricaria inodora [6], the “Pre-emergence action at 20 g/ha against MATIN in %” value turned out to be 80% and the “Pre-emergence action at 80 g/ha against MATIN in %” value is recorded as 100%. The “Pre-emergence action at 80 g/ha against ABUTH in %” value in test [7] was determined as 100%. In addition, the “Pre-emergence action at 80 g/ha against DIGSA in %” value in test [8] came out at 100%. Besides, the “Pre-emergence action at 80 g/ha against SETVI in %” value with SETVI Setaria viridis [9] is 100%.

Turning to `Cn1nnnc1NC(=O)c1c(F)cc(C(F)(F)F)c(C(=O)NC2CC2)c1Cl` [Example 1-182], in [14], the “Post-emergence action at 20 g/ha against ALOMY in %” value was 80%. Also, the “Post-emergence action at 20 g/ha against ECHCG in %” value in [10] was determined as 80%. In test [11], the “Post-emergence action at 5 g/ha against AMARE in %” value was 80% and the “Post-emergence action at 20 g/ha against AMARE in %” value was determined as 100%. In test [3], the “Pre-emergence action at 80 g/ha against ALOMY in %” value is recorded as 80%. The “Pre-emergence action at 80 g/ha against VERPE in %” value in the test on VERPE Veronica persica came to 100%. Moreover, in test [5], the “Pre-emergence action at 20 g/ha against AMARE in %” value was found to be 100% and the “Pre-emergence action at 80 g/ha against AMARE in %” value was found to be 100%. Moreover, the “Pre-emergence action at 80 g/ha against POLCO in %” value in test [15] stood at 90%. Further, the “Pre-emergence action at 80 g/ha against MATIN in %” value in the test with MATIN Matricaria inodora [6] was determined as 100%. Moreover, the “Pre-emergence action at 80 g/ha against ABUTH in %” value in [7] stood at 100%. In addition, in [8], the “Pre-emergence action at 20 g/ha against DIGSA in %” value is given as 90% and the “Pre-emergence action at 80 g/ha against DIGSA in %” value is listed as 100%.
